# Experimental data reported in patent publication US11787816B2, “Chlorin compound, and preparation and use thereof” (Southwest Jiaotong University, priority 2021, dated 2023).
# Columns and labels:
# [1] = test system: human cervical cancer Hela cells; assay: Photosensitizer-mediated PDT, in vitro proliferation (MTT), Hela; type: cell-based; conditions: for cell viability (%): Hela; for toxicity to the cells when the drug is used alone without photodynamic treatment: summary statement for Hela, huh-7 and 4T1 cells
# Description: (§1) Several kinds of tumor cells (human cervical cancer Hela cells, human hepatocellular carcinoma huh-7 cells and murine mammary carcinoma 4T1 cells) cultured in vitro from a variety of tissues were taken as cell models, so as to investigate the photodynamic effects mediated by different doses of CEFN, CEFO, Ce6 and HPPH on the three different tumor cells (n=3). The specific experimental procedures were carried out as follows.
# (§2) Cells in the logarithmic growth phase were harvested and seeded in a 24-well plate. After growing to a confluence of 70-80%, the cells were randomly divided into a control group (free of drug and light irradiation), a drug group and a photodynamic group. The CEFN, CEFO, Ce6 and HPPH were added respectively in dark, and for each drug, four final concentrations 1, 2, 5, and 10 μg/mL were set with 3 replicates for each group. After the co-incubation, the groups were treated individually. Regarding the photodynamic group, the light irradiation was performed at a wavelength of 660 nm and three different light intensities, i.e., 2, 4 and 8 J/cm^2. After that, each group was digested, and were inoculated into a 96-well plate at 100 μL per well with 4 replicates for each treatment. 24 hours later, the 96-well plate was subjected to MTT assay as follows. Each well was added with 20 μL of MTT (3-4,5-dimethylthiazol-2,5-diphenyltetrazolium bromide) solution in the dark and incubated for 4 hours. The supernatant was discarded, and the residue was dissolved with 150 μL of dimethyl sulfoxide for 15 min. After that, the 96-well plate was measured by a microplate reader for the absorbance (OD value). The relative cell viability was calculated as follows: relative cell viability=OD value of experimental group/OD value of control group*100%.
# [2] = test system: human hepatocellular carcinoma huh-7 cells; assay: Photosensitizer-mediated PDT, in vitro proliferation (MTT), huh-7; type: cell-based
# Description: as §1, §2
# [3] = test system: murine mammary carcinoma 4T1 cells; assay: Antitumor activity as photosensitizers on tumor-bearing mice (one PDT treatment); type: in vivo; conditions: for Inhibitory rate (average ± SD, %) / Tumor weight (average ± SD, g): 660 nm, 75 Joule/cm^2 6 h after dosing, 7 days after PDT; for Body weight At the begining / Body weight At the end: one PDT treatment, mice, in g (unit assumed)
# Description: The murine mammary carcinoma cells (4T1 line) were subjected to adherent culture. After growing to a confluence of 70%-80%, the cells in the culture flask were routinely digested, centrifuged and counted, and then resuspended with 0.85% normal saline to a density of 1×10^7 cells/mL. The cell suspension was injected into the left lateral middle axillary subcutaneous part of […] Bal b/c healthy mice (female, aged 6-8 weeks) at 0.1 mL/mouse. When the tumor diameter, which was observed every other day, reached 0.6-0.8 cm, the mice with well-growing tumors and no ulcers on the epidermis were selected for grouped treatment.
# (1) Mice with similar body weight and uniform tumor size are selected and randomly divided into 7 groups with 6 mice for each group. After inoculation for 48 h, the mice were subjected to drug administration separately from the tail vein by group.
# 6 h after the drug administration, the mice were fixed to expose the tumor growth site. Light irradiation was performed for 8 min, using PDT-660 photodynamic therapy equipment at a laser wavelength of 660 nm and a light dose of 75 Joule/cm^2. Then both of the mice growth and tumor growth are observed continuously. 7 days after photodynamic therapy, the animals were sacrificed. The tumor was stripped and weighed, and the body weight was recorded.
substance,measurement,setting,value
3-hexoxymethyl-3-devinyl-chlorin e4 disodium salt [CEFO],cell viability (%),"[1]; 1 μg/mL, 660 nm, 2 J/cm^2",65 ± 3%
same,cell viability (%),"[1]; 1 μg/mL, 660 nm, 4 J/cm^2",61 ± 3%
same,cell viability (%),"[1]; 1 μg/mL, 660 nm, 8 J/cm^2",40 ± 2%
same,cell viability (%),"[1]; 1 μg/mL, no light",101 ± 2%
same,cell viability (%),"[1]; 2 μg/mL, 660 nm, 2 J/cm^2",54 ± 3%
same,cell viability (%),"[1]; 2 μg/mL, 660 nm, 4 J/cm^2",45 ± 2%
same,cell viability (%),"[1]; 2 μg/mL, 660 nm, 8 J/cm^2",25 ± 2%
same,cell viability (%),"[1]; 2 μg/mL, no light",107 ± 2%
same,cell viability (%),"[1]; 5 μg/mL, 660 nm, 2 J/cm^2",38 ± 2%
same,cell viability (%),"[1]; 5 μg/mL, 660 nm, 4 J/cm^2",24 ± 3%
same,cell viability (%),"[1]; 5 μg/mL, 660 nm, 8 J/cm^2",14 ± 4%
same,cell viability (%),"[1]; 5 μg/mL, no light",109 ± 2%
same,cell viability (%),"[1]; 10 μg/mL, 660 nm, 2 J/cm^2",25 ± 2%
same,cell viability (%),"[1]; 10 μg/mL, 660 nm, 4 J/cm^2",4 ± 1%
same,cell viability (%),"[1]; 10 μg/mL, 660 nm, 8 J/cm^2",3 ± 2%
same,cell viability (%),"[1]; 10 μg/mL, no light",107 ± 2%
same,toxicity to the cells when the drug is used alone without photodynamic treatment,[1]; no light,will not lower the cell viability
same,cell viability (%),"[2]; 1 μg/mL, 660 nm, 2 J/cm^2",63 ± 3%
same,cell viability (%),"[2]; 1 μg/mL, 660 nm, 4 J/cm^2",60 ± 3%
same,cell viability (%),"[2]; 1 μg/mL, 660 nm, 8 J/cm^2",53 ± 3%
same,cell viability (%),"[2]; 1 μg/mL, no light",99 ± 2%
same,cell viability (%),"[2]; 2 μg/mL, 660 nm, 2 J/cm^2",58 ± 1%
same,cell viability (%),"[2]; 2 μg/mL, 660 nm, 4 J/cm^2",53 ± 3%
same,cell viability (%),"[2]; 2 μg/mL, 660 nm, 8 J/cm^2",30 ± 2%
same,cell viability (%),"[2]; 2 μg/mL, no light",99 ± 2%
same,cell viability (%),"[2]; 5 μg/mL, 660 nm, 2 J/cm^2",39 ± 2%
same,cell viability (%),"[2]; 5 μg/mL, 660 nm, 4 J/cm^2",24 ± 2%
same,cell viability (%),"[2]; 5 μg/mL, 660 nm, 8 J/cm^2",27 ± 1%
same,cell viability (%),"[2]; 5 μg/mL, no light",97 ± 3%
same,cell viability (%),"[2]; 10 μg/mL, 660 nm, 2 J/cm^2",25 ± 2%
same,cell viability (%),"[2]; 10 μg/mL, 660 nm, 4 J/cm^2",9 ± 1%
same,cell viability (%),"[2]; 10 μg/mL, 660 nm, 8 J/cm^2",7 ± 1%
same,cell viability (%),"[2]; 10 μg/mL, no light",93 ± 4%
same,"Inhibitory rate (average ± SD, %)",[3]; 0.2 mg/kg tail vein,87.0 ± 3.1%
same,"Tumor weight (average ± SD, g)",[3]; 0.2 mg/kg tail vein,0.021 ± 0.005 g
same,Body weight At the begining,[3]; 0.2 mg/kg,20.4 ± 0.3
same,Body weight At the end,[3]; 0.2 mg/kg,21.5 ± 0.3
same,"Inhibitory rate (average ± SD, %)",[3]; 0.4 mg/kg tail vein,97.5 ± 0.4%
same,"Tumor weight (average ± SD, g)",[3]; 0.4 mg/kg tail vein,0.004 ± 0.001 g
same,Body weight At the begining,[3]; 0.4 mg/kg,20.7 ± 0.4
same,Body weight At the end,[3]; 0.4 mg/kg,21.8 ± 0.4
3-n-hexylaminomethyl-3-devinyl-chlorin e4 disodium salt [CEFN],cell viability (%),"[1]; 1 μg/mL, 660 nm, 2 J/cm^2",98 ± 3%
same,cell viability (%),"[1]; 1 μg/mL, 660 nm, 4 J/cm^2",99 ± 1%
same,cell viability (%),"[1]; 1 μg/mL, 660 nm, 8 J/cm^2",78 ± 3%
same,cell viability (%),"[1]; 1 μg/mL, no light",103 ± 2%
same,cell viability (%),"[1]; 2 μg/mL, 660 nm, 2 J/cm^2",78 ± 3%
same,cell viability (%),"[1]; 2 μg/mL, 660 nm, 4 J/cm^2",62 ± 2%
same,cell viability (%),"[1]; 2 μg/mL, 660 nm, 8 J/cm^2",51 ± 3%
same,cell viability (%),"[1]; 2 μg/mL, no light",99 ± 2%
same,cell viability (%),"[1]; 5 μg/mL, 660 nm, 2 J/cm^2",43 ± 3%
same,cell viability (%),"[1]; 5 μg/mL, 660 nm, 4 J/cm^2",32 ± 4%
same,cell viability (%),"[1]; 5 μg/mL, 660 nm, 8 J/cm^2",21 ± 3%
same,cell viability (%),"[1]; 5 μg/mL, no light",106 ± 2%
same,cell viability (%),"[1]; 10 μg/mL, 660 nm, 2 J/cm^2",36 ± 3%
same,cell viability (%),"[1]; 10 μg/mL, 660 nm, 4 J/cm^2",17 ± 2%
same,cell viability (%),"[1]; 10 μg/mL, no light",104 ± 2%
same,toxicity to the cells when the drug is used alone without photodynamic treatment,[1]; no light,will not lower the cell viability
same,cell viability (%),"[2]; 1 μg/mL, 660 nm, 2 J/cm^2",101 ± 3%
same,cell viability (%),"[2]; 1 μg/mL, 660 nm, 4 J/cm^2",78 ± 3%
same,cell viability (%),"[2]; 1 μg/mL, 660 nm, 8 J/cm^2",90 ± 3%
same,cell viability (%),"[2]; 1 μg/mL, no light",97 ± 2%
same,cell viability (%),"[2]; 2 μg/mL, 660 nm, 2 J/cm^2",87 ± 2%
same,cell viability (%),"[2]; 2 μg/mL, 660 nm, 4 J/cm^2",68 ± 2%
same,cell viability (%),"[2]; 2 μg/mL, 660 nm, 8 J/cm^2",64 ± 3%
same,cell viability (%),"[2]; 2 μg/mL, no light",95 ± 3%
same,cell viability (%),"[2]; 5 μg/mL, 660 nm, 2 J/cm^2",61 ± 2%
same,cell viability (%),"[2]; 5 μg/mL, 660 nm, 4 J/cm^2",55 ± 3%
same,cell viability (%),"[2]; 5 μg/mL, 660 nm, 8 J/cm^2",47 ± 2%
same,cell viability (%),"[2]; 5 μg/mL, no light",93 ± 3%
same,cell viability (%),"[2]; 10 μg/mL, 660 nm, 2 J/cm^2",50 ± 2%
same,cell viability (%),"[2]; 10 μg/mL, 660 nm, 4 J/cm^2",12 ± 3%
same,cell viability (%),"[2]; 10 μg/mL, 660 nm, 8 J/cm^2",9 ± 2%
same,cell viability (%),"[2]; 10 μg/mL, no light",93 ± 1%
same,"Inhibitory rate (average ± SD, %)",[3]; 0.2 mg/kg tail vein,68.5 ± 1.7%
same,"Tumor weight (average ± SD, g)",[3]; 0.2 mg/kg tail vein,0.051 ± 0.003 g
same,Body weight At the begining,[3]; 0.2 mg/kg,20.6 ± 0.6
same,Body weight At the end,[3]; 0.2 mg/kg,21.7 ± 0.5
same,"Inhibitory rate (average ± SD, %)",[3]; 0.4 mg/kg tail vein,82.7 ± 3.7%
same,"Tumor weight (average ± SD, g)",[3]; 0.4 mg/kg tail vein,0.028 ± 0.006 g
same,Body weight At the begining,[3]; 0.4 mg/kg,20.5 ± 0.4
same,Body weight At the end,[3]; 0.4 mg/kg,21.6 ± 0.5
